According to US20250214977A1, “STAT6 INHIBITORS AND USES THEREOF” (Kymera Therapeutics, Inc., priority 2024, published 2025):
Where “and” joins values, the source holds several entries; their conditions need not be identical. Equal entries are not always repeated.

These compounds were tested on Phosphorylation of STAT6 in human A549 cells (assay: Phosphorylated STAT6 (pSTAT6) flow cytometry assay in human A549 cells). Conditions: listed as I-393, read-out: STAT6 IL4 pSTAT6 assay in A549 cells: Average IC50.
Format: cell-based
Source text: Example 3. Phosphorylated STAT6 (pSTAT6) Flow Cytometry Assay in Human A549 Cells
Phosphorylation of STAT6 in human A549 cells was quantitatively measured using flow cytometry technology.

Row | SMILES | IC50 [nM]
1 | CCC1CN(C)CC1c1cc(C2=CCCN(C(=O)CCn3ccnn3)C2)c(F)c2[nH]c(C(=O)N3CCN(c4ncc(F)cc4OC)CC3)cc12 (centres unmarked) [Example I-1208, 1-[5-[4-(4-ethyl-1-methyl-pyrrolidin-3-yl)-7-fluoro-2-[4-(5-fluoro-3-methoxy-2-pyridyl)piperazine-1-carbonyl]-1H-indol-6-yl]-3,6-dihydro-2H-pyridin-1-yl]-3-(triazol-1-yl)propan-1-one] | < 100

Same assay, conditions: read-out: STAT6 IL4 pSTAT6 assay in A549 cells: Average IC50

Row | SMILES | IC50
2 | CCc1cc(C)ncc1-c1cc(C2=CCCN(C(=O)C(C)C(=O)O)C2)c(F)c2[nH]c(C(=O)N3CCN(c4ncc(F)cc4OC)CC3)cc12 (centres unmarked) [Example I-808, 3-(3-(4-(4-ethyl-6-methylpyridin-3-yl)-7-fluoro-2-(4-(5-fluoro-3-methoxypyridin-2-yl)piperazine-1-carbonyl)-1H-indol-6-yl)-5,6-dihydropyridin-1(2H)-yl)-2-methyl-3-oxopropanoic acid] | 100 to 1000 nM and < 100 nM
3 | CCc1cc(C)ncc1-c1cc(C2=CCCN(C(=O)CCn3cccn3)C2)c(F)c2[nH]c(C(=O)N3CCN(c4nc(C)ccc4OC)CC3)cc12 [Example I-514] | < 100 nM
4 | CCc1cc(C(F)F)ncc1-c1cc(C2=CCCN(C(=O)CCn3ccnn3)C2)c(F)c2[nH]c(C(=O)N3Cc4cnn(CC)c4C3)cc12 [Example I-767] | > 100000 nM
5 | COc1cccnc1N1CCN(C(=O)c2cc3c(-c4cccc5c4OC(F)(F)O5)cc(C4=CCCN(C(=O)CCn5ccnn5)C4)c(F)c3[nH]2)CC1 [Example I-690] | < 100 nM
6 | COc1ccccc1-c1cc(C2=CCCN(C(=O)CCn3ccnn3)C2)c(F)c2[nH]c(C(=O)N3CCN(c4nc5ccccc5c5ccccc45)CC3)cc12 [Example I-916] | 100 to 1000 nM
7 | COc1ccccc1-c1cc(C2=CCCN(C(=O)CCn3ccnn3)C2)c(F)c2[nH]c(C(=O)N3CCN(c4ccccc4F)CC3)cc12 [Example I-418] | < 100 nM
8 | CCn1c(C2=CCCN(C(=O)CCn3ccnn3)C2)cc2cc(C(=O)N3CCN(c4ncc(F)cc4OC)CC3)cc(-c3ccccc3OC)c21 [Example I-734] | < 100 nM
9 | COc1ccncc1-c1cc(C2=CCCN(C(C)=O)C2)c(F)c2[nH]c(C(=O)N3Cc4cnn(C)c4C3)cc12 [Example I-701] | 10000 to 100000 nM
10 | COc1cc(F)cnc1N1CCN(C(=O)c2cc3c(C4=Cc5ccccc5C4)cc(C4=CCCN(C(=O)CCn5ccnn5)C4)c(F)c3[nH]2)CC1 [Example I-1161] | 100 to 1000 nM
11 | COc1cc(F)cnc1N1CCN(C(=O)c2cc3c(-c4cncc(OC(C)C)c4)cc(C4=CCCN(C(=O)CCn5ccnn5)C4)c(F)c3[nH]2)CC1 [Example I-655] | < 100 nM
12 | CCOCc1cc(F)ccc1-c1cc(C2=CCCN(C(=O)CCn3ccnn3)C2)c(F)c2[nH]c(C(=O)N3CCN(c4ncc(F)cc4OC)CC3)cc12 [Example I-1125] | < 100 nM
13 | COc1cc(F)cnc1N1CCN(C(=O)c2cc3c(C=CC(C)(C)O)cc(C4=CCCN(C(=O)CCn5ccnn5)C4)c(F)c3[nH]2)CC1 [Example I-1110] | < 100 nM
14 | COc1cc(F)cnc1N1CCN(C(=O)c2cc3c(C4=CC(=O)CC4)cc(C4=CCCN(C(=O)CCn5ccnn5)C4)c(F)c3[nH]2)CC1 [Example I-1116] | < 100 nM
15 | COc1ccccc1-c1cc(C2=CCCN(C(=O)CCn3ccnn3)C2)c(F)c2[nH]c(C(=O)N3CCC(OC4CCC4)CC3)cc12 [Example I-984] | < 100 nM
16 | CN(C)C(=O)c1cc2c(F)c(C3=CCCN(C(=O)CCn4ccnn4)C3)ccc2o1 [Example I-1052] | < 100 nM
17 | COc1ncccc1-c1cc(C(=O)N2Cc3cnn(C)c3C2)cc2cc(C3=CCCN(C(=O)CCn4ccnn4)C3)n(CC3CC3)c12 [Example I-717] | 10000 to 100000 nM
18 | COc1cc(F)cnc1N1CCN(C(=O)c2cc3c(-c4cnccc4C(C)C)cc(C4=CCCN(C(=O)CCn5ccnn5)C4)c(F)c3[nH]2)CC1 [Example I-668] | > 100000 nM
19 | COc1cccnc1N1CCN(C(=O)c2cc3c(-c4ccccc4OC(F)(F)F)cc(C4=CCCN(C(=O)CCn5ccnn5)C4)c(F)c3[nH]2)CC1 [Example I-558] | < 100 nM
20 | CN(C)C(=O)c1cc2cc(C3=CCCN(C(=O)CCn4ccnn4)C3)cc(NCc3ccc(C(F)(F)F)nc3)c2o1 [Example I-893] | < 100 nM
21 | CCc1cc(C)ncc1-c1cc(C2=CCCN(C(=O)CCn3cccn3)C2)c(F)c2[nH]c(C(=O)N3Cc4cnn(CC)c4C3)cc12 [Example I-537] | < 100 nM
22 | CN(C)C(=O)c1cc2cc(C3=CCCN(C(=O)C(Cn4ccnn4)c4cccc(CO)c4)C3)ccc2o1 (centres unmarked) [Example I-832] | 1000 to 10000 nM
23 | COc1ccccc1-c1cc(C2=CCCN(C(=O)CCn3ccnn3)C2)c(F)c2[nH]c(C(=O)N3CCc4ccc(N)cc4C3)cc12 [Example I-1012] | < 100 nM
24 | COc1cc(F)cnc1N1CCN(C(=O)c2cc3c(-c4ccc(-c5cccnc5)cc4)cc(C4=CCCN(C(=O)CCn5ccnn5)C4)c(F)c3[nH]2)CC1 [Example I-1152] | < 100 nM
25 | COc1ccccc1-c1cc(C2=CCCN(C(=O)CCn3ccnn3)C2)c(F)c2[nH]c(C(=O)N3CCN(c4ncc(F)cc4OC)CC3)cc12 [Example I-370] | < 100 nM
26 | COc1ccccc1-c1cc(C2=CCCN(C(=O)CCn3ccnn3)C2)c(F)c2[nH]c(C(=O)N3CCN(Cc4ccc(Cl)cc4)CC3)cc12 [Example I-868] | 100 to 1000 nM
27 | CCc1ccc(-c2cc(C(=O)N3CCN(c4ncc(F)cc4OC)CC3)cc3cc(C4=CCCN(C(=O)C5CC5C(=O)O)C4)n(CC4CC4)c23)c(C)n1 (centres unmarked) [Example I-550] | > 100000 nM

Row | SMILES | IC50
28 | COc1ccccc1-c1cc(C2=CCCN(C(=O)CCn3ccnn3)C2)c(F)c2[nH]c(C(=O)N3CCN(c4cccc(=O)n4C)CC3)cc12 [Example I-1020] | < 100 nM
29 | COCCCOc1ccc(-c2cc(C3=CCCN(C(=O)CCn4ccnn4)C3)c(F)c3[nH]c(C(=O)N4CCN(c5ncc(F)cc5OC)CC4)cc23)cc1 [Example I-1112] | < 100 nM
30 | COc1cc(F)cnc1N1CCN(C(=O)c2cc3c(-c4cnccc4C(C)C)cc(C4=CCCN(C(=O)CCn5cccn5)C4)c(F)c3[nH]2)CC1 [Example I-669] | < 100 nM
31 | COc1ccccc1-c1cc(C2=CCCN(C(=O)CCn3ccnn3)C2)c(F)c2[nH]c(C(=O)N3CCN(c4ncccc4OC(F)F)CC3)cc12 [Example I-358] | < 100 nM
32 | COc1cc(F)cnc1N1CCN(C(=O)c2cc3c(-c4ccc(OC5CCOCC5)cc4)cc(C4=CCCN(C(=O)CCn5ccnn5)C4)c(F)c3[nH]2)CC1 [Example I-1111] | < 100 nM
33 | COc1cc(F)cnc1N1CCN(C(=O)c2cc3c(-c4ccc(OC5CCCCO5)cc4)cc(C4=CCCN(C(=O)CCn5ccnn5)C4)c(F)c3[nH]2)CC1 (centres unmarked) [Example I-1166] | < 100 nM
34 | COc1ccccc1-c1cc(C2=CCCN(C(=O)CCn3ccnn3)C2)c(F)c2[nH]c(C(=O)N3CCN(c4ccn(C)n4)CC3)cc12 [Example I-933] | < 100 nM
35 | CCc1nc(C)ccc1-c1cc(C(=O)N2CCN(c3ncc(F)cc3OC)CC2)cc2cc(C3=CCCN(C(=O)CCC(=O)O)C3)n(CC3CC3)c12 [Example I-527] | < 100 nM
36 | COc1ccncc1-c1cc(C2=CCCN(C(=O)CCn3ccnn3)C2)c(F)c2[nH]c(C(=O)N3CCN(c4ccc(F)c(OC)c4F)CC3)cc12 [Example I-492] | > 100000 nM
37 | COc1ccccc1-c1cc(C2=CCCN(C(=O)CCn3ccnn3)C2)c(F)c2[nH]c(C(=O)N3CC(Oc4ccc(F)cc4)C3)cc12 [Example I-999] | < 100 nM
38 | COc1cc(F)cnc1N1CCN(C(=O)c2cc3c(-c4cccc(CO)c4C)cc(C4=CCCN(C(=O)CCn5ccnn5)C4)c(F)c3[nH]2)CC1 [Example I-616] | > 100000 nM
39 | CCOc1ccncc1-c1cc(C2=CCCN(C(=O)CCn3ccnn3)C2)c(F)c2[nH]c(C(=O)N3CCN(c4ccnnc4OC)CC3)cc12 [Example I-483] | < 100 nM
40 | CN(C)C(=O)c1cc2cc(C3=CCCN(C(=O)C4Cc5c(N)cccc5CN4C=O)C3)ccc2o1 (centres unmarked) [Example I-372] | 100 to 1000 nM
41 | COc1ccccc1-c1cc(C2=CCCN(C(=O)CCn3ccnn3)C2)c(F)c2[nH]c(C(=O)N3CCN(c4cc(F)c(F)c5ccc(C)nc45)CC3)cc12 [Example I-907] | < 100 nM
42 | COc1cccnc1N1CCN(C(=O)c2cc3c(-c4cccc(F)c4F)cc(C4=CCCN(C(=O)CCn5ccnn5)C4)c(F)c3[nH]2)CC1 [Example I-371] | < 100 nM
43 | COc1cccnc1N1CCN(C(=O)c2cc3c(C4CCN(C)C4)cc(C4=CCCN(C(=O)CCn5ccnn5)C4)c(F)c3[nH]2)CC1 (centres unmarked) [Example I-585] | < 100 nM
44 | COc1cccnc1N1CCN(C(=O)c2cc3c(-c4cnc(C)c(C)c4OC)cc(C4=CCCN(C(=O)CCn5ccnn5)C4)c(F)c3[nH]2)CC1 [Example I-724] | < 100 nM
45 | COc1cc(F)cnc1N1CCN(C(=O)c2cc3c(-c4cnn(C5CC5)c4)cc(C4=CCCN(C(=O)CCn5ccnn5)C4)c(F)c3[nH]2)CC1 [Example I-1151] | < 100 nM
46 | COc1ccc(-c2cc(C3=CCCN(C(=O)CCn4ccnn4)C3)cc3cc(C(=O)N(C)C)oc23)c(C#N)c1 [Example I-854] | < 100 nM
47 | CCc1ccncc1-c1cc(C2=CCCC(C(=O)O)C2)c(F)c2[nH]c(C(=O)N3CCN(c4ncc(F)cc4OC)CC3)cc12 (centres unmarked) [Example I-1205] | 1000 to 10000 nM
48 | COc1cccnc1N1CCN(C(=O)c2cc3c(-c4cccc(F)c4OC)cc(C4=CCCN(C(=O)CCn5ccnn5)C4)c(F)c3[nH]2)CC1 [Example I-399] | > 100000 nM
49 | CCOc1ccncc1-c1cc(C2=CCCN(C(=O)CCn3ccnn3)C2)c(F)c2[nH]c(C(=O)N3CCN(c4nccnc4OC)CC3)cc12 [Example I-478] | < 100 nM
50 | COc1cc(F)cnc1N1CCN(C(=O)c2cc3c(C4CC4)cc(C4=CCCN(C(=O)CCn5ccnn5)C4)c(F)c3[nH]2)CC1 [Example I-694] | > 100000 nM
51 | CN(C(=O)c1cc2c(-c3cncnc3C3CC3)cc(C3=CCCN(C(=O)CCn4ccnn4)C3)c(F)c2[nH]1)C1CC1 [Example I-1043] | > 100000 nM
52 | COc1ccncc1-c1cc(C2=CCCN(C(=O)CCn3ccnn3)C2)c(F)c2[nH]c(C(=O)N3CCN(c4cccnc4C#N)CC3)cc12 [Example I-493] | > 100000 nM
53 | COc1ccccc1-c1cc(C2=CCCN(C(=O)CCn3ccnn3)C2)c(F)c2[nH]c(C(=O)N3CCc4ncncc4C3)cc12 [Example I-1010] | < 100 nM
